# Laboratory results: patent publication US4999358A, “(1,2,3,4-tetrahydro-9-acridinimino)cyclohexane carboxylic acid and related compounds” (Hoechst-Roussel Pharmaceuticals Inc., priority 1989, dated 1991)
# What was measured:
# [1] = test system: Scopolamine Induced Memory Deficit; test: Scopolamine-induced Dark Avoidance Assay; details: s.c., mice, 24 h
# Experimental: In this assay mice are tested for their ability to remember an unpleasant stimulus for a period of 24 hours. A mouse is placed in a chamber that contains a dark compartment; a strong incandescent light drives it to the dark compartment, where an electric shock is administered through metal plates on the floor. The animal is removed from the testing apparatus and tested again, 24 hours later, for the ability to remember the electric shock.
# If scopolamine, an anticholinergic that is known to cause memory impariment, is administered before an animal's initial exposure to the test chamber, the animal re-enters the dark compartment shortly after being placed in the test chamber 24 hours later.
# acetylcholinesterase = acetylcholinesterase (Homo sapiens, UniProt P22303); test: Cholinesterase inhibition assay (photometric method of Ellman et al.); type: biochemical
# Chain of acetylcholinesterase (P22303 32-614): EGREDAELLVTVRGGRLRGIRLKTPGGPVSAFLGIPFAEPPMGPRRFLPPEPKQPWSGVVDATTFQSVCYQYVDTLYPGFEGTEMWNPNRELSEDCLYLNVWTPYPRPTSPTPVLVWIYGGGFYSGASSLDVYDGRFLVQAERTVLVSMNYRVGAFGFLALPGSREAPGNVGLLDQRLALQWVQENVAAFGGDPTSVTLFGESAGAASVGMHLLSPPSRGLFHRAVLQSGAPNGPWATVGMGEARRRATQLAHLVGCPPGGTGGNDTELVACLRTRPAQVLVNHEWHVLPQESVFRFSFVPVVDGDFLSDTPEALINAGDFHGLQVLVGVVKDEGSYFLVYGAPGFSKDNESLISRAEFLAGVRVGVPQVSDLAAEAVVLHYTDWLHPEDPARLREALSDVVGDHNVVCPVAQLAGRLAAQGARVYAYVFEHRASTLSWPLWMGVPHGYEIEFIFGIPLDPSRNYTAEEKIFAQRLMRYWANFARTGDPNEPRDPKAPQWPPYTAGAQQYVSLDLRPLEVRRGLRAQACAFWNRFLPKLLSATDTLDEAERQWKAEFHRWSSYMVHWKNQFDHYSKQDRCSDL
structure (smiles),measurement,setting,value
"CC1(C(=O)O)CCCCC1=Nc1c2c(nc3ccccc13)CCCC2 (stereo not drawn) [1-Methyl-2-(1,2,3,4-tetrahydroacridinimino)cyclohexane carboxylic acid]",% of Animals with Scopolamine Induced Memory Deficit Reversal,[1]; 2.5 mg/kg of body weight,20%
"CCOC(=O)C1CCCCC1=Nc1c2c(nc3ccccc13)CCCC2 (stereo not drawn) [2-(1,2,3,4-Tetrahydro-9-acridinimino)cyclohexanecarboxylic acid ethyl ester]",IC50,acetylcholinesterase,15.2 µM
same,% of Animals with Scopolamine Induced Memory Deficit Reversal,[1]; 0.16 mg/kg of body weight,29%
"O=C(O)C1CCCCC1=Nc1c2c(nc3ccccc13)CCCC2 (stereo not drawn) [2-(1,2,3,4-Tetrahydro-9-acridinimino)cyclohexanecarboxylic acid]",% of Animals with Scopolamine Induced Memory Deficit Reversal,[1]; 0.63 mg/kg of body weight,53%
"O=C(OCc1ccccc1)C1=C(N(Cc2ccccc2)c2c3c(nc4ccccc24)CCCC3)CCCC1 [2-[N-(Phenylmethyl)-1,2,3,4-tetrahydro-9-acridinamino]-cyclohex-1-ene carboxylic acid phenylmethyl ester]",% of Animals with Scopolamine Induced Memory Deficit Reversal,[1]; 0.63 mg/kg of body weight,29%
"CNC(=O)Oc1ccc2c(c1)[C@]1(C)CCN(C)[C@@H]1N2C [Physostigmine, reference compound]",% of Animals with Scopolamine Induced Memory Deficit Reversal,[1]; 0.31 mg/kg of body weight,20%
